According to ChEMBL document CHEMBL3352275, “2-Aminothiazole derivatives as antimycobacterial agents: Synthesis, characterization, in vitro and in silico studies” (Eur J Med Chem, 2014):
Values after ≈ are worked out from the molar mass of the structure shown.

Tests used:
[1] = Binding affinity to Mycobacterium tuberculosis beta-Ketoacyl-ACP Synthase
[2] = system: Mycobacterium tuberculosis; assay: Antimycobacterial activity against Mycobacterium tuberculosis H37Rv after 5 days by resazurin-based microdilution method; type: functional; conditions: 120 h

| SMILES | Ki [1] [µM] | MIC [2] [µM] |
| --- | --- | --- |
| Fc1ccc(Nc2nc(-c3ccc(Br)cc3)cs2)cc1 | 1.28 | 25 (≈ 8.73 µg/mL) |
| COc1ccc(-c2csc(Nc3ccc(F)cc3)n2)cc1 |  | 12.5 (≈ 3.75 µg/mL) |
| Cc1cccc(Nc2nc(-c3ccc(Cl)c(Cl)c3)cs2)n1 |  | > 200 |
| Cc1sc(Nc2ccc(F)cc2)nc1-c1ccc(Br)cc1 |  | 100 (≈ 36.3 µg/mL) |
| Brc1ccc(-c2csc(Nc3ccccn3)n2)cc1 |  | > 200 |
| Cc1cccnc1Nc1nc(-c2cccnc2)cs1 |  | > 200 |
| Fc1ccc(Nc2nc(-c3ccc(Cl)cc3)cs2)cc1 |  | 12.5 (≈ 3.81 µg/mL) |
| Fc1ccc(Nc2nc(-c3cccnc3)cs2)cc1 |  | > 200 |
| Brc1ccc(Nc2nc(-c3ccncc3)cs2)cc1 | 0.44 |  |
| O=[N+]([O-])c1cc(Cl)ccc1Nc1nc(-c2ccncc2)cs1 |  | > 200 |
| Brc1ccc(-c2nc(Nc3ccccn3)sc2Br)cc1 |  | > 200 |
| Cc1cccnc1Nc1nc(-c2ccc(Br)cc2)c(Br)s1 |  | > 200 |
| Cc1cccc(Nc2nc(-c3ccncc3)cs2)n1 | 30.2 | 100 (≈ 26.8 µg/mL) |
| Oc1ccc(Nc2nc(-c3cccnc3)cs2)cc1 |  | > 200 |
| Cc1cccnc1Nc1nc(-c2ccc(Cl)c(Cl)c2)cs1 |  | > 200 |
| O=[N+]([O-])c1cc(Cl)ccc1Nc1nc(-c2ccc3ccccc3c2)cs1 |  | > 200 |

| SMILES | Ki [1] [µM] | MIC [2] [µM] |
| --- | --- | --- |
| Fc1ccc(Nc2nc(-c3ccc(Br)cc3)c(Br)s2)cc1 |  | 25 (≈ 10.7 µg/mL) |
| COc1ccc(-c2csc(Nc3cccc(C)n3)n2)cc1 |  | > 200 |
| O=[N+]([O-])c1cc(Cl)ccc1Nc1nc(-c2cccnc2)cs1 |  | > 200 |
| O=[N+]([O-])c1cc(Cl)ccc1Nc1nc(-c2ccccn2)cs1 |  | > 200 |
| Cc1sc(Nc2ccccn2)nc1-c1ccc(Br)cc1 |  | > 200 |
| Cc1cccnc1Nc1nc(-c2ccncc2)cs1 |  | > 200 |
| Oc1ccc(Nc2nc(-c3ccc(Cl)cc3)cs2)cc1 |  | 200 (≈ 60.6 µg/mL) |
| COc1ccc(-c2csc(Nc3ccc(Cl)cc3[N+](=O)[O-])n2)cc1 |  | 12.5 (≈ 4.52 µg/mL) |
| COc1ccc(-c2csc(Nc3ccc(O)cc3)n2)cc1 |  | > 200 |
| Fc1ccc(Nc2nc(-c3ccc4ccccc4c3)cs2)cc1 |  | 100 (≈ 32 µg/mL) |
| Oc1ccc(Nc2nc(-c3ccncc3)cs2)cc1 |  | > 200 |
| Cc1cccc(Nc2nc(-c3ccc(Br)cc3)c(C)s2)n1 |  | > 200 |
| c1ccc(Nc2nc(-c3cccnc3)cs2)nc1 |  | > 200 |
| Cc1cccc(Nc2nc(-c3cccc4ccccc34)cs2)n1 |  | > 200 |
| Fc1ccc(Nc2nc(-c3ccncc3)cs2)cc1 |  | 25 (≈ 6.78 µg/mL) |
| Cc1cccnc1Nc1nc(-c2ccc(Br)cc2)c(C)s1 |  | 100 (≈ 36 µg/mL) |
